Target: Dipeptidyl peptidase 4 (Rattus norvegicus, UniProt P14740)
Assay: Inhibitory activity against dipeptidyl peptidase IV (DP-IV)

Chain of Dipeptidyl peptidase 4 (P14740 whole entry): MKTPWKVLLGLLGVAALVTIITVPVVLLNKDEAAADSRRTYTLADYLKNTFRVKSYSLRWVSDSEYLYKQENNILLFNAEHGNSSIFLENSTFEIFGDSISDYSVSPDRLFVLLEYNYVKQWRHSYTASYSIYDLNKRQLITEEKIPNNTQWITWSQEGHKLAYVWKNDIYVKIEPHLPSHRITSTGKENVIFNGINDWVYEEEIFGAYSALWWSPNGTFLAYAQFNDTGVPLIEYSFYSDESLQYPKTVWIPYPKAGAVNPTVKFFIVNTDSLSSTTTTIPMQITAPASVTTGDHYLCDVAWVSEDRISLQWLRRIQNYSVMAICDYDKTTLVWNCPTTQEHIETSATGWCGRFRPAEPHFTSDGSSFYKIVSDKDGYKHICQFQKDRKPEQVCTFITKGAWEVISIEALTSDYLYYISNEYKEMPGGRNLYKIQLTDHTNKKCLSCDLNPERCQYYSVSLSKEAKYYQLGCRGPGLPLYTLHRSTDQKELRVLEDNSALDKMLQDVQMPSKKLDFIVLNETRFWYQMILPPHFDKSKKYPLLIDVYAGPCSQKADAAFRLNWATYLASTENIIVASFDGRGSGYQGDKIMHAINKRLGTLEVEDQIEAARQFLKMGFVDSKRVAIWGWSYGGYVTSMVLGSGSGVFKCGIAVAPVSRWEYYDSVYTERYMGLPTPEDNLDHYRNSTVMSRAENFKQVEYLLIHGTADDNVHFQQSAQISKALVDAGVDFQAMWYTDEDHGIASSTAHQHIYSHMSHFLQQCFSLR

Q: Which IC50 does the source give for CC(C)C[C@H](N)C(=O)N1CCCN1C(=O)Nc1cccc([N+](=O)[O-])c1 here?
A: The IC50 was 20.7 µM.

Q: With CC(C)[C@H](N)C(=O)N1CCCN1C(=O)Nc1cccc([N+](=O)[O-])c1 as the compound, how does the IC50 read?
A: Its IC50 is 2.1 µM.

Q: How did the IC50 turn out when O=C(CNC1CCCCC1)N1CCCN1C(=O)Nc1cccc([N+](=O)[O-])c1 was run?
A: Its IC50 is 4.6 µM.

Q: How did the IC50 turn out when CCC(C)[C@H](N)C(=O)N1CCCN1C(=O)Nc1cccc([N+](=O)[O-])c1 (stereo not given in full) was run?
A: Its IC50 is 1.56 µM.

Q: With CCC(C)[C@H](N)C(=O)N1CCCN1C(=O)OCc1ccccc1 (stereo not given in full) as the compound, how does the IC50 read?
A: The IC50 was 23.3 µM.

Q: How did the IC50 turn out when CCOC(=O)c1ccc(NC(=O)N2CCCN2C(=O)[C@@H](N)C(C)CC)cc1 (stereo not given in full) was run?
A: The IC50 was 3.9 µM.

Q: For CCC(C)[C@H](N)C(=O)N1CCCN1C(=O)Nc1ccc(Cl)c(Cl)c1 (stereo not given in full), which IC50 is on record?
A: The IC50 was 5.6 µM.

Q: How did the IC50 turn out when CCC(C)[C@H](N)C(=O)N1CCCN1C(=O)Nc1ccc([N+](=O)[O-])c(F)c1 (stereo not given in full) was run?
A: The IC50 was 2.27 µM.

Q: How did the IC50 turn out when CCC(C)[C@H](N)C(=O)N1CCCN1C(=O)Nc1ccc(C#N)cc1 (stereo not given in full) was run?
A: Its IC50 is 9.2 µM.

Q: Which IC50 does the source give for CCC(C)[C@H](N)C(=O)N1CCCN1C(=O)Nc1ccc(C(F)(F)F)cc1 (stereo not given in full) here?
A: Its IC50 is 25 µM.

Q: For CCC(C)[C@H](N)C(=O)N1CCCN1C(=O)Nc1ccc([N+](=O)[O-])cc1 (stereo not given in full), which IC50 is on record?
A: The IC50 was 7.06 µM.

Q: Which IC50 does the source give for CCC(C)[C@H](N)C(=O)N1CCCN1C(=O)Nc1ccc([N+](=O)[O-])c(Cl)c1 (stereo not given in full) here?
A: Its IC50 is 4.71 µM.

Q: CCC(C)[C@H](N)C(=O)N1CCCN1C(=O)Nc1ccccc1 (stereo not given in full) was tested. Which IC50 did it give?
A: Its IC50 is 15 µM.

Q: For CCC(C)[C@H](N)C(=O)N1CCCN1C(=O)Nc1cccc(C#N)c1 (stereo not given in full), which IC50 is on record?
A: The IC50 was 4.04 µM.

Q: For CCOC(=O)c1cccc(NC(=O)N2CCCN2C(=O)[C@@H](N)C(C)CC)c1 (stereo not given in full), which IC50 is on record?
A: Its IC50 is 8.8 µM.
